{"source": "patent US11607129B2", "about": "“Combined positron emission tomography (PET)-electron paramagnetic resonance (EPR) imaging device” (West Virginia University, priority 2018, dated 2023)", "origin": "cited, not measured here", "system": "mouse", "details": "as confirmed by recent cytotoxicity studies; probe hydrophilic, remains extracellular"}
{"substance": "phosphonated triarylmethyl radicals [pTAM]", "values": [{"measurement": "toxicity to the mouse", "value": "minimal toxicity"}]}
